Assay results as given in PubChem BioAssay AID488868 (Broad Institute, 2010).
Active and inactive are the calls of the source.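 Rule for the calls: active = compounds lowering nitrite signal whose fitted AC50 is at most ten times their top tested dose; inconclusive = flat drop of 30 to 70 percent, or poor curve fit; inactive = the rest.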

Experiments:
[1] = inhibitors of cytokine-induced nitrite release, dose response, cell-based, Griess absorbance, INS-1E, dry powder, set 2 (AID 488868); conditions: INS-1E cytokine-induced nitrite, Griess absorbance, 48 h
[2] = system: INS-1E cytokine-induced nitrite, Griess absorbance, 48 h; experiment: as above

Row | Compound | activity change, negative = inhibition ([1]; at 26 µM (top of the series)) | also measured
1 | COc1ccc(S(=O)(=O)N(C)C[C@@H]2Oc3c(NS(=O)(=O)c4ccc(F)cc4)cccc3C(=O)N([C@@H](C)CO)C[C@H]2C)cc1 | -1.11% (inactive) | 
2 | C[C@@H]1CN([C@@H](C)CO)C(=O)c2cccc(NC(=O)Nc3ccccc3)c2O[C@H]1CN(C)S(=O)(=O)c1ccc(Cl)cc1 | -5.63% (inactive) | 
3 | C[C@@H]1CN([C@@H](C)CO)C(=O)c2cccc(NC(=O)Nc3cccc4ccccc34)c2O[C@H]1CN(C)C(=O)Nc1ccccc1 |  | activity change, negative = inhibition ([1]; at 12 µM (top of the series)): 11.5% (inactive)
4 | COc1ccc(S(=O)(=O)N(C)C[C@@H]2Oc3c(NC(=O)c4ccncc4)cccc3C(=O)N([C@@H](C)CO)C[C@H]2C)cc1 | 10% (inactive) | 
5 | C[C@@H]1CN([C@@H](C)CO)C(=O)c2cccc(NC(=O)Nc3cccc4ccccc34)c2O[C@H]1CN(C)S(=O)(=O)c1ccc2c(c1)OCCO2 |  | AC50 [2]: > 26 µM (inactive)
6 | COc1ccc(S(=O)(=O)N(C)C[C@@H]2Oc3c(NC(=O)Nc4ccc(C(F)(F)F)cc4)cccc3C(=O)N([C@@H](C)CO)C[C@H]2C)cc1 | -12% (inactive) | 
7 | COc1ccc(S(=O)(=O)N(C)C[C@@H]2Oc3c(NS(=O)(=O)c4cn(C)cn4)cccc3C(=O)N([C@@H](C)CO)C[C@H]2C)cc1 | 4.39% (inactive) | 
8 | C[C@@H]1CN([C@@H](C)CO)C(=O)c2cccc(NC(=O)Nc3cccc4ccccc34)c2O[C@H]1CN(C)S(=O)(=O)c1ccc2c(c1)OCCCO2 | -19.2% (inactive) | 
9 | COc1ccc(S(=O)(=O)N(C)C[C@@H]2Oc3c(NC(=O)c4ccc(-c5nccs5)cc4)cccc3C(=O)N([C@@H](C)CO)C[C@H]2C)cc1 | -0.0778% (inactive) | 
10 | COc1ccc(S(=O)(=O)N(C)C[C@@H]2Oc3c(NS(=O)(=O)c4ccccc4)cccc3C(=O)N([C@@H](C)CO)C[C@H]2C)cc1 | 0.0255% (inactive) | 
11 | Cc1ccc(S(=O)(=O)N(C)C[C@@H]2Oc3c(NC(=O)Nc4ccccc4)cccc3C(=O)N([C@H](C)CO)C[C@H]2C)cc1 | -21% (inactive) | 
12 | COc1ccc(S(=O)(=O)N(C)C[C@@H]2Oc3c(NC(=O)C4CC4)cccc3C(=O)N([C@@H](C)CO)C[C@H]2C)cc1 |  | activity change, negative = inhibition ([1]; at 23.5 µM (top of the series)): 1.94% (inactive)
13 | COc1ccc(S(=O)(=O)Nc2cccc3c2O[C@@H](CN(C)S(=O)(=O)c2ccc(OC)cc2)[C@H](C)CN([C@@H](C)CO)C3=O)cc1 | -6.55% (inactive) | 
14 | C[C@@H]1CN([C@@H](C)CO)C(=O)c2cccc(NC(=O)Nc3cccc4ccccc34)c2O[C@H]1CN(C)S(=O)(=O)c1ccc2c(c1)OCC2 | -32.4% (inactive) | 
15 | COc1ccc(S(=O)(=O)N(C)C[C@@H]2Oc3c(NC(=O)C4CCCCC4)cccc3C(=O)N([C@@H](C)CO)C[C@H]2C)cc1 | 1.58% (inactive) | 
16 | C[C@@H]1CN([C@@H](C)CO)C(=O)c2cccc(NC(=O)Nc3cccc4ccccc34)c2O[C@H]1CN(C)S(=O)(=O)c1cn(C)cn1 | -2.87% (inactive) | 
17 | COc1ccc(S(=O)(=O)N(C)C[C@@H]2Oc3c(NC(=O)Nc4c(C)noc4C)cccc3C(=O)N([C@@H](C)CO)C[C@H]2C)cc1 | -3.17% (inactive) | 
18 | COc1ccc(S(=O)(=O)N(C)C[C@@H]2Oc3c(NC(=O)c4cc(C)nn4C)cccc3C(=O)N([C@@H](C)CO)C[C@H]2C)cc1 | -1.39% (inactive) | 
19 | COc1ccc(S(=O)(=O)N(C)C[C@@H]2Oc3c(NC(=O)Nc4cccc5ccccc45)cccc3C(=O)N([C@@H](C)CO)C[C@H]2C)cc1OC | 2.18% (inactive) | 
20 | C[C@@H]1CN([C@@H](C)CO)C(=O)c2cccc(NC(=O)Nc3cccc4ccccc34)c2O[C@H]1CN(C)S(=O)(=O)c1ccc2c(n1)N(C)CCO2 |  | activity change, negative = inhibition ([1]; at 12 µM (top of the series)): 1.75% (inactive)
21 | COc1ccc(S(=O)(=O)N(C)C[C@@H]2Oc3c(NC(=O)c4cnccn4)cccc3C(=O)N([C@@H](C)CO)C[C@H]2C)cc1 | 5.1% (inactive) | 
22 | Cc1ccc(S(=O)(=O)N(C)C[C@@H]2Oc3c(NC(=O)Nc4ccc(F)cc4)cccc3C(=O)N([C@H](C)CO)C[C@H]2C)cc1 |  | activity change, negative = inhibition ([1]; at 12 µM (top of the series)): -0.835% (inactive)
23 | COc1ccc(S(=O)(=O)N(C)C[C@@H]2Oc3c(NC(=O)NC(C)C)cccc3C(=O)N([C@@H](C)CO)C[C@H]2C)cc1 | 6.79% (inactive) | 
24 | C[C@@H]1CN([C@@H](C)CO)C(=O)c2cccc(NC(=O)Nc3cccc4ccccc34)c2O[C@H]1CN(C)S(C)(=O)=O | 0.629% (inactive) | 
25 | COc1ccc(S(=O)(=O)N(C)C[C@@H]2Oc3c(NC(=O)Nc4ccccc4)cccc3C(=O)N([C@H](C)CO)C[C@H]2C)cc1 |  | AC50 [2]: > 26 µM (inactive)

Row | Compound | activity change, negative = inhibition ([1]; at 26 µM (top of the series)) | also measured
26 | C[C@@H]1CN([C@@H](C)CO)C(=O)c2cccc(NC(=O)Nc3ccc(F)cc3)c2O[C@H]1CN(C)S(=O)(=O)c1ccc(F)cc1 | -1.84% (inactive) | 
27 | COc1ccc(S(=O)(=O)N(C)C[C@@H]2Oc3c(NS(=O)(=O)c4ccc(Cl)cc4)cccc3C(=O)N([C@@H](C)CO)C[C@H]2C)cc1 | 4.24% (inactive) | 
28 | COc1ccc(S(=O)(=O)N(C)C[C@@H]2Oc3c(NC(=O)Nc4ccc(F)cc4)cccc3C(=O)N([C@H](C)CO)C[C@H]2C)cc1 | -19% (inactive) | 
29 | COc1ccc(S(=O)(=O)N(C)C[C@@H]2Oc3c(NS(=O)(=O)c4ccc(C)cc4)cccc3C(=O)N([C@@H](C)CO)C[C@H]2C)cc1 |  | activity change, negative = inhibition ([1]; at 23.5 µM (top of the series)): -10.1% (inactive)
30 | COc1ccc(S(=O)(=O)N(C)C[C@H]2Oc3c(NC(=O)Nc4cccc5ccccc45)cccc3C(=O)N([C@@H](C)CO)C[C@@H]2C)cc1 | -8.36% (inactive) | 
31 | COc1ccc(NC(=O)Nc2cccc3c2O[C@@H](CN(C)S(=O)(=O)c2ccc(OC)cc2)[C@H](C)CN([C@@H](C)CO)C3=O)cc1 | -7.77% (inactive) | 
32 | COc1ccc(S(=O)(=O)N(C)C[C@@H]2Oc3c(NC(=O)Nc4cccc5ccccc45)cccc3C(=O)N(C(C)C)C[C@H]2C)cc1 | 12.7% (inactive) | 
33 | COc1ccc(S(=O)(=O)N(C)C[C@@H]2Oc3c(NC(=O)C4CCOCC4)cccc3C(=O)N([C@@H](C)CO)C[C@H]2C)cc1 |  | activity change, negative = inhibition ([1]; at 23.5 µM (top of the series)): 3.17% (inactive)
34 | C[C@@H]1CN([C@H](C)CO)C(=O)c2cccc(NC(=O)Nc3ccc(F)cc3)c2O[C@H]1CN(C)S(=O)(=O)c1ccc(Cl)cc1 |  | activity change, negative = inhibition ([1]; at 12 µM (top of the series)): 1.53% (inactive)
35 | C[C@@H]1CN([C@H](C)CO)C(=O)c2cccc(NC(=O)Nc3ccccc3)c2O[C@H]1CN(C)S(=O)(=O)c1ccc(F)cc1 | -13.8% (inactive) | 
36 | Cc1ccc(S(=O)(=O)N(C)C[C@@H]2Oc3c(NC(=O)Nc4ccccc4)cccc3C(=O)N([C@@H](C)CO)C[C@H]2C)cc1 | -12.1% (inactive) | 
37 | COc1ccc(S(=O)(=O)N(C)C[C@@H]2Oc3c(NC(=O)Nc4ccc5c(c4)OCO5)cccc3C(=O)N([C@@H](C)CO)C[C@H]2C)cc1 | -14.3% (inactive) | 
38 | COc1ccc(S(=O)(=O)N(C)C[C@@H]2Oc3c(NC(=O)Nc4cccc5ccccc45)cccc3C(=O)N([C@@H](C)CO)C[C@@H]2C)cc1 | -6.51% (inactive) | 
39 | C[C@@H]1CN([C@@H](C)CO)C(=O)c2cccc(NC(=O)Nc3cccc4ccccc34)c2O[C@H]1CN(C)S(=O)(=O)c1ccc2ncsc2c1 | -14.4% (inactive) | 
40 | COc1ccc(S(=O)(=O)N(C)C[C@@H]2Oc3c(NC(=O)Nc4ccccc4)cccc3C(=O)N([C@@H](C)CO)C[C@H]2C)cc1 | -14.9% (inactive) | 
41 | COc1ccc(S(=O)(=O)N(C)C[C@H]2Oc3c(NC(=O)Nc4cccc5ccccc45)cccc3C(=O)N([C@H](C)CO)C[C@H]2C)cc1 | 0.786% (inactive) | 
42 | C[C@@H]1CN([C@@H](C)CO)C(=O)c2cccc(NC(=O)Nc3ccccc3)c2O[C@H]1CN(C)S(=O)(=O)c1ccc(F)cc1 | -5.13% (inactive) | 
43 | COc1ccc(S(=O)(=O)N(C)C[C@H]2Oc3c(NC(=O)Nc4cccc5ccccc45)cccc3C(=O)N([C@H](C)CO)C[C@@H]2C)cc1 | -26.2% (inactive) | 
44 | COc1ccc(S(=O)(=O)N(C)C[C@@H]2Oc3c(NC(=O)Nc4cccc5ccccc45)cccc3C(=O)N([C@H](C)CO)C[C@@H]2C)cc1 | -1.65% (inactive) | 
45 | C[C@@H]1CN([C@@H](C)CO)C(=O)c2cccc(NC(=O)Nc3cccc4ccccc34)c2O[C@H]1CN(C)S(=O)(=O)c1ccc2c(c1)oc(=O)n2C | 4.7% (inactive) | 
46 | C[C@H]1CN([C@@H](C)CO)C(=O)c2cccc(NC(=O)NC3CCCCC3)c2O[C@@H]1CN(C)S(C)(=O)=O | -3.58% (inactive) | 
47 | COc1ccc(S(=O)(=O)N(C)C[C@@H]2Oc3c(NC(=O)Nc4ccc(F)cc4)cccc3C(=O)N([C@@H](C)CO)C[C@H]2C)cc1 |  | activity change, negative = inhibition ([1]; at 23.5 µM (top of the series)): -9.52% (inactive)
48 | COc1ccc(S(=O)(=O)N(C)C[C@@H]2Oc3c(cccc3N(C)C)C(=O)N([C@@H](C)CO)C[C@H]2C)cc1 |  | activity change, negative = inhibition ([1]; at 23.5 µM (top of the series)): -2.44% (inactive)
49 | COc1ccc(S(=O)(=O)N(C)C[C@@H]2Oc3c(NS(C)(=O)=O)cccc3C(=O)N([C@@H](C)CO)C[C@H]2C)cc1 | -7.41% (inactive) | 
